# Source: US20070184080A1, “Post harvest treatment of crops” (AstraZeneca UK Ltd, priority 2002, published 2007)
# Tested on: Colletotrichum musae
# Assay: Field test on inoculated banana hands: severity and incidence of molds and rots after 21 days storage
# Type: in vivo
# Details: 14 Degrees C., 90% RH
# Description: As set forth below, two sample formulations, Formula “C” and Formula “F”, containing paraffin wax, microcrystalline wax, and polybutylene (synthetic butyl rubber) were field tested in a tropical commercial banana operation. The test was designed to test the wax fungicide alternative, “the invention”, versus untreated placebo fruit and identical fruit treated with commercial fungicides. The inoculants were a highly concentrated aqueous Colletotrichum musae spore solution that is grossly more concentrated than actual field processing conditions. […] The test methodology included with four main test groups, each containing a statistically significant number of banana hands (clusters) to compare the relative infestation incidence rate of: • a.) Untreated inoculated fruit. • b.) Modified-wax treated inoculated fruit.—Two Formulas, C and F • c.) Fungicide treated inoculated fruit. • 1.) All of the fruit was inoculated with an aqueous suspension of 20,000 spores per milliliter of Colletotrichum by immersion in said suspension for a minimum of one minute. • 2.) The Formula C and F wax treated fruit was processed by dipping the wet crown of the inoculated banana hands into the molten wax, cooling for one minute, and re-dipping in the molten wax. • 3.) The Fungicide treated fruit was immersed into an aqueous solution of Thiabenzadole at the manufacturer's recommended dosage. • 4. All of the fruit was packaged and stored in a laboratory warehouse for twenty-one days at a temperature of 14 Degrees C. and ninety percent relative humidity. An empirical visual grading scale was employed to record and measure test results for a.) The presence or absence of rots and molds.; and b.) The severity of infestation. Latex staining was also observed and recorded. A visual infestation severity scale of one to five (1-5) was created where: 1=clean crown, and 5=severely rotten crown. After incubation, the banana producer's trained laboratory technicians graded the fruit and the aggregate results were compiled as presented below.
smiles,measurement,setting,value
c1ccc2[nH]c(-c3cscn3)nc2c1 [Thiabenzadole],Severity Crown Mold,"Procedure I = Inoculated (20,000 spores/ml Colletotrichum), 1=clean crown, 5=severely rotten crown",3.7 Scale 1-5
same,INCIDENCE Crown Mold,Procedure I = Inoculated,92.2%
same,INCIDENCE Crown Rot,Procedure I = Inoculated,100%
same,INCIDENCE Neck Rot,Procedure I = Inoculated,27.2%
same,INCIDENCE Peel Rot,Procedure I = Inoculated,84%
same,Severity Crown Rot,"Procedure I = Inoculated, 1=clean crown, 5=severely rotten crown",3.92 Scale 1-5
